Data published in patent US9765039B2, “Biaryl derivatives as bromodomain inhibitors” (Zenith Epigenetics Ltd., priority 2012, dated 2017).
Counter-ions that a name gives are not always drawn.

Legend:
Brd4 bromodomain 1 = target: T1, Brd4 bromodomain 1 (Homo sapiens, UniProt O60885); experiment: Inhibition of tetra-acetylated histone H4 binding to BET bromodomains (TR-FRET); parameters: key: Active: Compounds with an IC50 value less than 30 μM were deemed to be active.; Not Active: Compounds with an IC50 value less than 30 μM were deemed to be active; conditions: first bromodomain of Brd4, tetra-acetylated histone H4 peptide
T1 construct: made in house; host or cells: E. coli BL21(DE3)
Protocol: Proteins were cloned and overexpressed with a N-terminal 6×His tag, then purified by nickel affinity followed by size exclusion chromatography. Briefly, E. coli BL21(DE3) cells were transformed with a recombinant expression vector encoding N-terminally Nickel affinity tagged bromodomains from Brd2, Brd3, Brd4. Cell cultures were incubated at 37° C. with shaking to the appropriate density and induced overnight with IPTG. The supernatant of lysed cells was loaded onto Ni-IDA column for purification. Eluted protein was pooled, concentrated and further purified by size exclusion chromatography. Fractions representing monomeric protein were pooled, concentrated, aliquoted, and frozen at −80° C. for use in subsequent experiments.
Binding of tetra-acetylated histone H4 and BET bromodomains was confirmed by a Time Resolved Fluorescence Resonance Energy Transfer (TR-FRET) method. N-terminally His-tagged bromodomains (200 nM) and biotinylated tetra-acetylated histone H4 peptide (25-50 nM, Millipore) were incubated in the presence of Europium Cryptate-labeled streptavidin (Cisbio Cat. #610SAKLB) and XL665-labeled monoclonal anti-His antibody (Cisbio Cat. #61HISXLB) in a white 96 well microtiter plate (Greiner). For inhibition assays, serially diluted test compound was added to these reactions in a 0.2% final concentration of DMSO. Final buffer concentrations were 30 mM HEPES pH 7.4, 30 mM NaCl, 0.3 mM CHAPS, 20 mM phosphate pH 7.0, 320 mM KF, 0.08% BSA). After 2 hours incubation at room temperature, the fluorescence by FRET was measured at 665 and 620 nm by a SynergyH4 plate reader (Biotek). Illustrative results with the first bromodomain of Brd4 are shown below (Table 1). The binding inhibitory activity was shown by a decrease in 665 nm fluorescence relative to 620 nm. IC50 values were determined from a dose response curve.

hIL-6 mRNA = experiment: Inhibition of hIL-6 mRNA transcription in LPS-stimulated U937 macrophages; type: cell-based, human; parameters: key: Active: Compounds with an IC50 value less than 30 μM are deemed to be active; conditions: U937 differentiated into macrophages, 1 h pretreatment, lipopolysaccharide 3 h
Protocol: In this example, hIL-6 mRNA in tissue culture cells was quantitated to measure the transcriptional inhibition of hIL-6 when treated with a compound of the present disclosure.
A human leukemic monocyte lymphoma cell line (U937) was plated (3.2×10^4 cells per well) in a 96-well plate in 100 μL RPMI-1640 containing 10% FBS and penicillin/streptomycin, and differentiated into macrophages for 3 days in 60 ng/mL PMA ([…]) at 37° C. in 5% CO2 prior to the addition of the compound of interest. The cells were pretreated for 1 h with the test compound prior to stimulation with […] lipopolysaccharide from Escherichia coli. The cells were incubated at 37° C. for 3 h before the cells were harvested. At time of harvest, the spent media was removed from the cells and the cells were rinsed in 200 μL PBS. Cell lysis solution (70 μL) was added the cells in each well and incubated for 5-10 min at room temperature, to allow for complete cell lysis and detachment. mRNA was then prepared using the “mRNA Catcher PLUS plate” (Invitrogen), according to the protocol supplied. After the last wash, as much wash buffer as possible was aspirated without allowing the wells to dry. Elution buffer (E3, 70 μL) was then added to each well. mRNA was then eluted by incubating the mRNA Catcher PLUS plate with Elution Buffer for 5 min at 68° C. and then immediately placing the plate on ice.
The eluted mRNA isolated was then used in a one-step quantitative real-time PCR reaction, using components of the Ultra Sense Kit together with Applied Biosystems primer-probe mixes. Real-time PCR data was analyzed, normalizing the Ct values for hIL-6 to an internal control, prior to determining the fold induction of each unknown sample, relative to the control.

c-myc = experiment: Inhibition of c-myc expression in cancer cell lines (mRNA, real-time PCR); type: cell-based; parameters: key: Active: Compounds with an IC50 value less than 30 μM were deemed to be active; conditions: Human AML MV4-11 cells, 3 hours
Protocol: MV4-11 cells (2.5×10^4 cells) were plated in 96 well U-bottom plates with test compound or DMSO (0.1%), and incubated for 3 hours at 37° C. Cells were then harvested by centrifugation, lysed, and mRNA was isolated using the mRNA catcher plus kit (Invitrogen). Reverse transcription of the mRNA and duplex amplification of the c-myc and cyclophilin cDNAs was performed using the RNA Ultrasense kit (Invitrogen) and a ViiA7 real-time PCR machine (Applied Biosystems). IC50 values were determined from a dose response curve.

Human AML MV-4-11 cells = experiment: Inhibition of cell proliferation in cancer cell lines (CellTiter Aqueous One); type: cell-based; parameters: key: Active: Compounds with an IC50 value less than 30 μM were deemed to be active.; Not Active: Compounds with an IC50 value less than 30 μM were deemed to be active; conditions: 72 hours
Protocol: MV4-11 cells: 96-well plates were seeded with 5×10^4 cells per well of exponentially growing human AML MV-4-11 (CRL-9591) cells and immediately treated with two-fold dilutions of test compounds, ranging from 30 μM to 0.2 μM. Triplicate wells were used for each concentration, as well as a media only and three DMSO control wells. The cells and compounds were incubated at 37° C., 5% CO2 for 72 hours before adding 20 μL of the CellTiter Aqueous One Solution (Promega) to each well and incubating at 37° C., 5% CO2 for an additional 3-4 hours. The absorbance was taken at 490 nm in a spectrophotometer and the percentage of proliferation relative to DMSO-treated cells was calculated after correction from the blank well. IC50 were calculated using the GraphPad Prism software.

Row | SMILES | FRET activity (IC50 < 30 μM) (Brd4 bromodomain 1) | IL-6 activity (IC50 < 30 μM) (hIL-6 mRNA) | melting point | c-myc activity (IC50 < 30 μM) (c-myc) | cell proliferation activity (IC50 < 30 μM) (Human AML MV-4-11 cells)
1 | COc1cccc2nc(-c3ccc(OCCO)c(-c4ccc(S(C)(=O)=O)cc4)n3)[nH]c(=O)c12 [Example 62, 2-(5-(2-Hydroxyethoxy)-6-(4-(methylsulfonyl)phenyl)pyridin-2-yl)-5-methoxyquinazolin-4(3H)-one] | Active | Active | > 300 °C |  | 
2 | COc1cccc2nc(-c3ccc(OCCNC(C)C)c(-c4ccc(S(C)(=O)=O)cc4)n3)[nH]c(=O)c12 [Example 64, 2-(5-(2-(Isopropylamino)ethoxy)-6-(4-(methylsulfonyl)phenyl)pyridin-2-yl)-5-methoxyquinazolin-4(3H)-one] | Active | Active | 222 to 223 °C | Active | Active
3 | COc1cc(OC)c2c(=O)[nH]c(-c3ccc(OCCN4CCOCC4)c(-c4ccc(S(C)(=O)=O)cc4)n3)nc2c1.Cl [Example 31, 5,7-Dimethoxy-2-(6-(4-(methylsulfonyl)phenyl)-5-(2-morpholinoethoxy)pyridin-2-yl)quinazolin-4(3H)-one hydrochloride] | Active | Active | 226 to 228 °C | Active | Not Active
4 | COc1cc(OC)c2c(=O)[nH]c(-c3ccc(OC)c(-c4ccc(C(=O)N(C)C)cc4C)n3)nc2c1 [Example 54, 4-(6-(5,7-Dimethoxy-4-oxo-3,4-dihydroquinazolin-2-yl)-3-methoxypyridin-2-yl)-N,N,3-trimethylbenzamide] | Active | Active | 248 to 251 °C | Not Active | Not Active
5 | COc1cc(OC)c2c(=O)[nH]c(-c3cccc(-c4ccc([S+](C)[O-])cc4)c3)nc2c1 (stereo not drawn) [Example 47, 5,7-Dimethoxy-2-(4′-(methylsulfinyl)-[1,1′-biphenyl]-3-yl)quinazolin-4(3H)-one] | Not Active | Not Active | > 300 °C |  | 
6 | COc1cc(OC)c2c(=O)[nH]c(-c3ccc(OC)c(-c4ccc(S(C)(=O)=O)cc4)n3)nc2c1 [Example 58, 5,7-Dimethoxy-2-(5-methoxy-6-(4-(methylsulfonyl)phenyl)pyridin-2-yl)quinazolin-4(3H)-one] | Active | Active | 279 to 281 °C | Not Active | Not Active
7 | C[S+]([O-])c1ccc(-c2nc(-c3nc4ccccc4c(=O)[nH]3)ccc2OCCO)cc1 (stereo not drawn) [Example 61, 2-(5-(2-Hydroxyethoxy)-6-(4-(methylsulfinyl)phenyl)pyridin-2-yl)quinazolin-4(3H)-one] | Active |  | 261 to 262 °C |  | 
8 | CC(C)NCCOc1ccc(-c2nc3ccccc3c(=O)[nH]2)nc1-c1ccc(S(C)(=O)=O)cc1 [Example 68, 2-(5-(2-(Isopropylamino)ethoxy)-6-(4-(methylsulfonyl)phenyl)pyridin-2-yl)quinazolin-4(3H)-one] | Active |  | 188 to 189 °C |  | 

Continued, values first:

Row | FRET activity (IC50 < 30 μM) (Brd4 bromodomain 1) | IL-6 activity (IC50 < 30 μM) (hIL-6 mRNA) | melting point | c-myc activity (IC50 < 30 μM) (c-myc) | cell proliferation activity (IC50 < 30 μM) (Human AML MV-4-11 cells) | SMILES
9 | Active | Not Active | 222 to 223 °C |  |  | COc1cc(OC)c2c(=O)[nH]c(-c3ccc(OCCNC(C)C)c(-c4cccc(S(C)(=O)=O)c4)n3)nc2c1 [Example 33, 2-(5-(2-(Isopropylamino)ethoxy)-6-(3-(methylsulfonyl)phenyl)pyridin-2-yl)-5,7-dimethoxyquinazolin-4(3H)-one]
10 | Active | Active | 282 to 284 °C | Active | Active | CCS(=O)(=O)c1ccc(-c2nc(-c3nc4cc(OC)cc(OC)c4c(=O)[nH]3)ccc2OCCO)cc1 [Example 34, 2-(6-(4-(Ethylsulfonyl)phenyl)-5-(2-hydroxyethoxy)pyridin-2-yl)-5,7-dimethoxyquinazolin-4(3H)-one]
11 | Active | Active | 240 to 242 °C |  |  | COc1cc(OC)c2c(=O)[nH]c(-c3ccc(OCCO)c(-c4ccccc4)n3)nc2c1 [Example 21, 2-(5-(2-Hydroxyethoxy)-6-phenylpyridin-2-yl)-5,7-dimethoxyquinazolin-4(3H)-one]
12 | Active |  | 92 to 93 °C |  |  | COc1cc(OC)c2c(=O)[nH]c(-c3ccc(OCCO)c(-c4ccccc4S(C)(=O)=O)n3)nc2c1 [Example 30, 2-(5-(2-Hydroxyethoxy)-6-(2-(methylsulfonyl)phenyl)pyridin-2-yl)-5,7-dimethoxyquinazolin-4(3H)-one]
13 | Active | Not Active | 178 to 180 °C |  |  | COc1cc(OC)c2c(=O)[nH]c(-c3ccc(OCCNC(C)C)c(-c4ccccc4S(C)(=O)=O)n3)nc2c1 [Example 32, 2-(5-(2-(Isopropylamino)ethoxy)-6-(2-(methylsulfonyl)phenyl)pyridin-2-yl)-5,7-dimethoxyquinazolin-4(3H)-one]
14 |  |  | 232 to 234 °C |  |  | COc1cc(OC)c2c(=O)[nH]c(-c3ccc(OCCO)c(-c4ccc(C(C)=O)cc4)n3)nc2c1 (as salt: hydrochloride) [Example 28, 2-(6-(4-Acetylphenyl)-5-(2-hydroxyethoxy)pyridin-2-yl)-5,7-dimethoxyquinazolin-4(3H)-one]
15 |  |  | 134 to 136 °C |  |  | COc1cc(OC)c2c(=O)[nH]c(-c3ccc(OCCO)c(-c4ccc(S(C)(=O)=O)cc4)n3)nc2c1 (as salt: methanesulfonate) [Example 25, 2-(5-(2-Hydroxyethoxy)-6-(4-(methylsulfonyl)phenyl)pyridin-2-yl)-5,7-dimethoxyquinazolin-4(3H)-one methanesulfonate]
